# Results published in paper PMC8536644, “Enigmatic mechanism of the N-vinylpyrrolidone hepatocarcinogenicity in the rat” (Archives of Toxicology, 2021).
# “And” between values parts separate entries of the source, which are not always exact repeats. Identical values can stand only once.
# Experiments:
# CYP1A = assay: EROD assay, lung microsomes of NVP-treated rats; type: in vivo, rat; conditions: after NVP treatment; below the LOD
# Method: (§1) The alkoxyresorufin dealkylase (AROD) assays were based on the method by Burke et al. ([1994]).
# The frozen livers and lungs of the NVP-treated male Wistar rats were thawed and washed with isotonic (0.9%) NaCl solution. The tissues were ice-cooled homogenized (1 g tissue: 3 mL 0.25 M saccharose in 1 mM disodium EDTA, pH 7.4) and centrifuged (9000 g, 15 min, 4 °C). The supernatant fraction was centrifuged (100 000 g, 60 min, 4 °C). The resulting supernatant fraction was used for the palmitoyl-CoA-oxidase assay described further down. The pellet was taken up in 150 mM aqueous KCl solution, recentrifuged (100 000 g, 60 min, 4 °C) and the pellet taken up in 1 mL/g liver or 0.5 mL/g lung resuspension buffer (1 mM GSH, 1 mM disodium EDTA, 4 mM MgCl2, 0.1 M KH2PO4, pH 7.5 and 4% glycerol). […]
# For determination of the enzyme activities in triplicates, 85 µL master mix (100 mM TrisHCl pH 7.5, 2 mM 5’AMP, 5 mM G-6-P, 10 U G-6-P-DH, 10 mM Dicumarol, 10 mM MgCl2, either 2 µM EROD or 10 µM PROD or 5 µM BROD) was added to 10 µL microsomal fraction (1 mg protein/mL). […] The activity was determined by measuring the increase of the fluorescence (excitation at 550 nm, emission at 585 nm) due to resorufin formation compared with resorufin standards, which had been prepared by dissolving tenfold concentrated solutions in DMSO, which were then diluted tenfold in 100 mM TrisHCl pH 7.5.
# CYP 2B/3A [1] = assay: BROD assay, liver microsomes (PXR marker); type: in vivo, rat; conditions: male rats
# Method: as §1
# The frozen livers and lungs of the NVP-treated male Wistar rats were thawed and washed with isotonic (0.9%) NaCl solution. The tissues were ice-cooled homogenized (1 g tissue: 3 mL 0.25 M saccharose in 1 mM disodium EDTA, pH 7.4) and centrifuged (9000 g, 15 min, 4 °C). The supernatant fraction was centrifuged (100 000 g, 60 min, 4 °C). The resulting supernatant fraction was used for the palmitoyl-CoA-oxidase assay described further down. The pellet was taken up in 150 mM aqueous KCl solution, recentrifuged (100 000 g, 60 min, 4 °C) and the pellet taken up in 1 mL/g liver or 0.5 mL/g lung resuspension buffer (1 mM GSH, 1 mM disodium EDTA, 4 mM MgCl2, 0.1 M KH2PO4, pH 7.5 and 4% glycerol). Aliquots were stored at − 80 °C.
# (§2) For determination of the enzyme activities in triplicates, 85 µL master mix (100 mM TrisHCl pH 7.5, 2 mM 5’AMP, 5 mM G-6-P, 10 U G-6-P-DH, 10 mM Dicumarol, 10 mM MgCl2, either 2 µM EROD or 10 µM PROD or 5 µM BROD) was added to 10 µL microsomal fraction (1 mg protein/mL). The reaction was started by the addition of 5 µL 2 mM NADPH (dissolved in 100 mM TrisHCl pH 7.5) followed by incubation at 37 °C for 16 min. The activity was determined by measuring the increase of the fluorescence (excitation at 550 nm, emission at 585 nm) due to resorufin formation compared with resorufin standards, which had been prepared by dissolving tenfold concentrated solutions in DMSO, which were then diluted tenfold in 100 mM TrisHCl pH 7.5.
# CYP4A = assay: Lauric acid hydroxylase assay, 12-hydroxylation (PPARα marker); type: in vivo, rat
# Method: ^14C-labelled lauric acid (55 mCi/mmol) dissolved in ethanol (0.1 mCi/mL; total volume 2.5 mL) was purchased from American Radiolabeled Chemicals. 10 µL of this solution were diluted with methanol to 2 mL. The purity was checked by radio-HPLC. For the enzyme activity determinations 1.21 mL of this solution were treated in the thermomixer at 40 °C and 300 rpm until the ethanol was completely evaporated. The residue was taken up in 550 µL DMSO and checked on the incubation days by radio-HPLC and by liquid scintillation counting (LSC). To this end the just-mentioned solution in DMSO (nominally 8.14 MBq/mL) was 100-fold diluted with methanol, 50 µL of the resultant solution used for the HPLC analysis, 100 µL for the LSC analysis (488,400 dpm/100 µL).
# For the determination of the lauric acid hydroxylase activity the liver microsomal fractions (prepared as described in the preceding chapter “Aryl hydrocarbon receptor”) derived from the NVP-treated (and untreated control) male rats were adjusted with TrisHCl pH 7.5–20 mg protein/mL. Obtained samples were measured in duplicates. Controls were heat-denatured samples (15 min at 99 °C in the thermomixer at 450 rpm), zero-time samples (reaction stopped immediately after adding substrate) and buffer controls (TrisHCl pH 7.5, no microsomal protein). 155 µL master mix (100 mM TrisHCl pH 7.5, 10 mM MgCl2, 2 mM 5’AMP-Na2, 5 mM G-6-P, 10 U G-6-P-DH) and 30 µL sample were preincubated for 3 min at 37 °C. Subsequently 10 µL of a 2-mM NADPH solution and 5 µL ^14C-lauric acid (8.14 MBq/mL) were added (lauric acid final concentration in the incubation 100 µM). The reaction was run for 20 min at 37 °C in the thermomixer (450 rpm) and stopped by the addition of 200 µL ice-cold acetone. […]
# CYP 2B/3A [2] = assay: BROD inhibition control in Aroclor 1254-induced rat liver microsomes; type: biochemical; conditions: for BROD enzyme activity: 0 µM control 445.1 ± 9.1
# Method: as §2
# As a method control the described AROD assay was performed with microsomal fractions derived from liver and lung of male Wistar rats which had been treated i.p. for 5 days with aroclor 1254 (500 mg/kg bw). These control assays were performed in presence of 1 μM, 10 μM or 100 μM NVP, respectively, in order to check for potential interactions of NVP with the substrate turnover in the AROD assay.
# mice = test system: mice; parameters: method as in BASF [1993]; conditions: oral application, ref BASF [1993]; cited from earlier work
# [3] = test system: p53 transcription factor activity; parameters: method as in ToxCast (comptox.epa.gov dashboard); conditions: ref ToxCast (comptox.epa.gov dashboard); read-out: AC50 of the p53 transcription factor activity modulation; cited from earlier work
# [4] = lauric acid 12-hydroxylation, liver microsomes, 20 ppm NVP, individual animals 19-24
compound,measurement,setting,value
"C=CN1CCCC1=O [NVP, N-vinylpyrrolidone]",EROD activity in lung microsomes,CYP1A,< 1.6 pmol/min/mg protein
same,Liver microsomal BROD activity,CYP 2B/3A [1]; 5 ppm,54.5 ± 11.3 pmol/min/mg protein
same,Liver microsomal BROD activity,CYP 2B/3A [1]; 10 ppm,61.7 ± 16 pmol/min/mg protein
same,Liver microsomal BROD activity,CYP 2B/3A [1]; 20 ppm,42.1 ± 16.5 pmol/min/mg protein
same,Increase of lauric acid 12-hydroxylation vs vehicle control,"CYP4A; 20 ppm, not statistically significant",1.3 fold
same,"ω-hydroxylase (CYP4A-activity), enzyme activity individual",CYP4A; [4],"20,495 peak surface/min/mg protein and 20,593 peak surface/min/mg protein and 10,543 peak surface/min/mg protein and 14,545 peak surface/min/mg protein and 15,406 peak surface/min/mg protein and 6779 peak surface/min/mg protein"
same,"ω-hydroxylase (CYP4A-activity), peak surface",CYP4A; [4],"27,314 and 28,341 and 15,814 and 21,818 and 23,109 and 11,088"
same,BROD enzyme activity,CYP 2B/3A [2]; 1 µM NVP,470.1 ± 29.7 pmol/min/mg protein
same,BROD enzyme activity,CYP 2B/3A [2]; 10 µM NVP,445.1 ± 20.9 pmol/min/mg protein
same,BROD enzyme activity,CYP 2B/3A [2]; 100 µM NVP,456.5 ± 30.9 pmol/min/mg protein
same,Inhibition of BROD activity,"CYP 2B/3A [2]; 1, 10 or 100 µM NVP",does not lead to inhibition
same,Micronucleus test result,mice,negative
same,AC50,[3],40 nM
